Values of other authors, collected in PMC3433420 (PLoS ONE, 2012).
Where two headings read alike, the source gives them in different places.

Key:
SH2 and PTB domains = conditions: most recent PM interactions, cited from earlier work
From the text: Supplement pone.0044471.s022.xlsx, sheet "Most recent PM interactions" | column: Kd || Supplement pone.0044471.s022.xlsx, sheet "All original PM interactions" | column: Kd

GRB7 SH2 domain = GRB7 SH2 domain (Homo sapiens, UniProt Q14451); parameters: 6X His; thioredoxin; made in house; host or cells: E. coli BL21(DE3)pLysS; conditions: Protein GRB7, most recent PM interactions, cited from earlier work
Sequence of GRB7 SH2 domain (Q14451 431-527 limits assumed): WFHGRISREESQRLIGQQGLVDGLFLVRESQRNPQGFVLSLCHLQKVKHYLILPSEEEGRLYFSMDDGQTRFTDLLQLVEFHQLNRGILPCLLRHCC

For AFSPAFDNLpYYWDQDPPE [ErbB2 1221], which Kd (SH2 and PTB domains; Protein ABL2, ref Jones et al. 2006 / Kaushansky et al. Chem and Biol 2008) is on record?
The Kd was 500 nM.

What about the Kd (SH2 and PTB domains; Protein BLK, ref Jones et al. 2006 / Kaushansky et al. Chem and Biol 2008) of the same substance?
Its Kd is 630 nM.

And the Kd (SH2 and PTB domains; Protein BLNK, ref Jones et al. 2006 / Kaushansky et al. Chem and Biol 2008)?
The Kd was 1560 nM.

And the Kd (SH2 and PTB domains; Protein FGR, ref Jones et al. 2006 / Kaushansky et al. Chem and Biol 2008)?
Its Kd is 420 nM.

And the Kd (SH2 and PTB domains; Protein GRB10, ref Jones et al. 2006 / Kaushansky et al. Chem and Biol 2008)?
The Kd was 120 nM.

What about the Kd (SH2 and PTB domains; Protein GRB14, ref Jones et al. 2006 / Kaushansky et al. Chem and Biol 2008) of the same substance?
Its Kd is 1400 nM.

And the Kd (SH2 and PTB domains; Protein ITK, ref Jones et al. 2006 / Kaushansky et al. Chem and Biol 2008)?
Its Kd is 780 nM.

And the Kd (SH2 and PTB domains; Protein LYN, ref Jones et al. 2006 / Kaushansky et al. Chem and Biol 2008)?
Its Kd is 930 nM.

What about the Kd (SH2 and PTB domains; Protein PIK3R1-NC, ref Jones et al. 2006 / Kaushansky et al. Chem and Biol 2008) of the same substance?
Its Kd is 1160 nM.

And the Kd (SH2 and PTB domains; Protein PIK3R2-N, ref Jones et al. 2006 / Kaushansky et al. Chem and Biol 2008)?
The Kd was 950 nM.

What about the Kd (SH2 and PTB domains; Protein PIK3R3-C, ref Jones et al. 2006 / Kaushansky et al. Chem and Biol 2008) of the same substance?
The Kd was 1910 nM.

What about the Kd (SH2 and PTB domains; Protein PLCG1-N, ref Jones et al. 2006 / Kaushansky et al. Chem and Biol 2008) of the same substance?
The Kd was 1930 nM.

What about the Kd (SH2 and PTB domains; Protein PLCG1-NC, ref Jones et al. 2006 / Kaushansky et al. Chem and Biol 2008) of the same substance?
The Kd was 1960 nM.

What about the Kd (SH2 and PTB domains; Protein PLCG2-N, ref Jones et al. 2006 / Kaushansky et al. Chem and Biol 2008) of the same substance?
Its Kd is 170 nM.

What about the Kd (SH2 and PTB domains; Protein RASA1-N, ref Jones et al. 2006 / Kaushansky et al. Chem and Biol 2008) of the same substance?
Its Kd is 190 nM.

And the Kd (SH2 and PTB domains; Protein RASA1-NC, ref Jones et al. 2006 / Kaushansky et al. Chem and Biol 2008)?
Its Kd is 510 nM.

What about the Kd (SH2 and PTB domains; Protein SH2D3A, ref Jones et al. 2006 / Kaushansky et al. Chem and Biol 2008) of the same substance?
The Kd was 1280 nM.

What about the Kd (SH2 and PTB domains; Protein SH2D3C, ref Jones et al. 2006 / Kaushansky et al. Chem and Biol 2008) of the same substance?
The Kd was 160 nM.

And the Kd (SH2 and PTB domains; Protein SHB, ref Jones et al. 2006 / Kaushansky et al. Chem and Biol 2008)?
Its Kd is 210 nM.

What about the Kd (SH2 and PTB domains; Protein SHC1-PTB, ref Jones et al. 2006 / Kaushansky et al. Chem and Biol 2008) of the same substance?
Its Kd is 340 nM.

And the Kd (SH2 and PTB domains; Protein SHC2-PTB, ref Jones et al. 2006 / Kaushansky et al. Chem and Biol 2008)?
The Kd was 430 nM.

And the Kd (SH2 and PTB domains; Protein SHF, ref Jones et al. 2006 / Kaushansky et al. Chem and Biol 2008)?
Its Kd is 340 nM.

What about the Kd (SH2 and PTB domains; Protein SLA2, ref Jones et al. 2006 / Kaushansky et al. Chem and Biol 2008) of the same substance?
The Kd was 1440 nM.

What about the Kd (SH2 and PTB domains; Protein SRC, ref Jones et al. 2006 / Kaushansky et al. Chem and Biol 2008) of the same substance?
The Kd was 35 nM.

And the Kd (SH2 and PTB domains; Protein SUPT6H, ref Jones et al. 2006 / Kaushansky et al. Chem and Biol 2008)?
The Kd was 1570 nM.

What about the Kd (SH2 and PTB domains; Protein SYK-C, ref Jones et al. 2006 / Kaushansky et al. Chem and Biol 2008) of the same substance?
Its Kd is 540 nM.

What about the Kd (SH2 and PTB domains; Protein SYK-N, ref Jones et al. 2006 / Kaushansky et al. Chem and Biol 2008) of the same substance?
Its Kd is 260 nM.

What about the Kd (SH2 and PTB domains; Protein SYK-NC, ref Jones et al. 2006 / Kaushansky et al. Chem and Biol 2008) of the same substance?
The Kd was 300 nM.

What about the Kd (SH2 and PTB domains; Protein TEC, ref Jones et al. 2006 / Kaushansky et al. Chem and Biol 2008) of the same substance?
Its Kd is 770 nM.

What about the Kd (SH2 and PTB domains; Protein TXK, ref Jones et al. 2006 / Kaushansky et al. Chem and Biol 2008) of the same substance?
Its Kd is 1230 nM.

What about the Kd (SH2 and PTB domains; Protein VAV2, ref Jones et al. 2006 / Kaushansky et al. Chem and Biol 2008) of the same substance?
The Kd was 1750 nM.

And the Kd (SH2 and PTB domains; Protein VAV3, ref Jones et al. 2006 / Kaushansky et al. Chem and Biol 2008)?
The Kd was 1130 nM.

And the Kd (SH2 and PTB domains; Protein YES1, ref Jones et al. 2006 / Kaushansky et al. Chem and Biol 2008)?
Its Kd is 45 nM.

And the Kd (SH2 and PTB domains; Protein ZAP70-NC, ref Jones et al. 2006 / Kaushansky et al. Chem and Biol 2008)?
The Kd was 1440 nM.

What about the Kd (GRB7 SH2 domain; ref Jones et al. 2006 / Kaushansky et al. Chem and Biol 2008) of the same substance?
Its Kd is 530 nM.

Which Kd (SH2 and PTB domains; Protein ABL1, ref Jones et al. 2006 / Kaushansky et al. Mol Biosys 2008 / Kaushansky et al. Chem and Biol 2008) does the source give for DDTFLPVPEpYINQSVPKd [ErbB1 1092] here?
The Kd was 920 nM.

And the Kd (SH2 and PTB domains; Protein ABL2, ref Jones et al. 2006 / Kaushansky et al. Mol Biosys 2008 / Kaushansky et al. Chem and Biol 2008)?
The Kd was 150 nM.

And the Kd (SH2 and PTB domains; Protein BLK, ref Jones et al. 2006 / Kaushansky et al. Mol Biosys 2008 / Kaushansky et al. Chem and Biol 2008)?
Its Kd is 300 nM.

What about the Kd (SH2 and PTB domains; Protein GRB2, ref Jones et al. 2006 / Kaushansky et al. Mol Biosys 2008 / Kaushansky et al. Chem and Biol 2008) of the same substance?
The Kd was 200 nM.

And the Kd (SH2 and PTB domains; Protein GRB10, ref Jones et al. 2006 / Kaushansky et al. Mol Biosys 2008 / Kaushansky et al. Chem and Biol 2008)?
The Kd was 1300 nM.

What about the Kd (SH2 and PTB domains; Protein ITK, ref Jones et al. 2006 / Kaushansky et al. Mol Biosys 2008 / Kaushansky et al. Chem and Biol 2008) of the same substance?
Its Kd is 220 nM.

What about the Kd (SH2 and PTB domains; Protein NCK2, ref Jones et al. 2006 / Kaushansky et al. Mol Biosys 2008 / Kaushansky et al. Chem and Biol 2008) of the same substance?
The Kd was 1100 nM.

And the Kd (SH2 and PTB domains; Protein PIK3R1-N, ref Jones et al. 2006 / Kaushansky et al. Mol Biosys 2008 / Kaushansky et al. Chem and Biol 2008)?
The Kd was 1080 nM.

What about the Kd (SH2 and PTB domains; Protein PIK3R1-NC, ref Jones et al. 2006 / Kaushansky et al. Mol Biosys 2008 / Kaushansky et al. Chem and Biol 2008) of the same substance?
Its Kd is 670 nM.

And the Kd (SH2 and PTB domains; Protein PIK3R2-N, ref Jones et al. 2006 / Kaushansky et al. Mol Biosys 2008 / Kaushansky et al. Chem and Biol 2008)?
Its Kd is 450 nM.

And the Kd (SH2 and PTB domains; Protein PIK3R2-NC, ref Jones et al. 2006 / Kaushansky et al. Mol Biosys 2008 / Kaushansky et al. Chem and Biol 2008)?
The Kd was 1410 nM.

And the Kd (SH2 and PTB domains; Protein PIK3R3-N, ref Jones et al. 2006 / Kaushansky et al. Mol Biosys 2008 / Kaushansky et al. Chem and Biol 2008)?
Its Kd is 510 nM.

And the Kd (SH2 and PTB domains; Protein PIK3R3-NC, ref Jones et al. 2006 / Kaushansky et al. Mol Biosys 2008 / Kaushansky et al. Chem and Biol 2008)?
Its Kd is 1020 nM.

And the Kd (SH2 and PTB domains; Protein PLCG2-NC, ref Jones et al. 2006 / Kaushansky et al. Mol Biosys 2008 / Kaushansky et al. Chem and Biol 2008)?
Its Kd is 1630 nM.

And the Kd (SH2 and PTB domains; Protein RASA1-N, ref Jones et al. 2006 / Kaushansky et al. Mol Biosys 2008 / Kaushansky et al. Chem and Biol 2008)?
Its Kd is 180 nM.

What about the Kd (SH2 and PTB domains; Protein SRC, ref Jones et al. 2006 / Kaushansky et al. Mol Biosys 2008 / Kaushansky et al. Chem and Biol 2008) of the same substance?
Its Kd is 1790 nM.

And the Kd (SH2 and PTB domains; Protein SYK-C, ref Jones et al. 2006 / Kaushansky et al. Mol Biosys 2008 / Kaushansky et al. Chem and Biol 2008)?
Its Kd is 1920 nM.

And the Kd (SH2 and PTB domains; Protein SYK-NC, ref Jones et al. 2006 / Kaushansky et al. Mol Biosys 2008 / Kaushansky et al. Chem and Biol 2008)?
The Kd was 910 nM.

What about the Kd (SH2 and PTB domains; Protein VAV2, ref Jones et al. 2006 / Kaushansky et al. Mol Biosys 2008 / Kaushansky et al. Chem and Biol 2008) of the same substance?
Its Kd is 540 nM.

And the Kd (SH2 and PTB domains; Protein YES1, ref Jones et al. 2006 / Kaushansky et al. Mol Biosys 2008 / Kaushansky et al. Chem and Biol 2008)?
The Kd was 340 nM.

What about the Kd (GRB7 SH2 domain; ref Jones et al. 2006 / Kaushansky et al. Mol Biosys 2008 / Kaushansky et al. Chem and Biol 2008) of the same substance?
Its Kd is 1990 nM.

Which results are given for EHKDNIGSQpYLLNWCVQd [ErbB1 813]?
Kd (SH2 and PTB domains; Protein ABL2, ref Kaushansky et al. Mol Biosys 2008): 200 nM; Kd (SH2 and PTB domains; Protein GRB10, ref Kaushansky et al. Mol Biosys 2008): 350 nM; Kd (SH2 and PTB domains; Protein ITK, ref Kaushansky et al. Mol Biosys 2008): 310 nM; Kd (SH2 and PTB domains; Protein NCK2, ref Kaushansky et al. Mol Biosys 2008): 200 nM; Kd (SH2 and PTB domains; Protein PIK3R1-C, ref Kaushansky et al. Mol Biosys 2008): 1850 nM; Kd (SH2 and PTB domains; Protein PIK3R1-NC, ref Kaushansky et al. Mol Biosys 2008): 1820 nM; Kd (SH2 and PTB domains; Protein PIK3R3-NC, ref Kaushansky et al. Mol Biosys 2008): 1870 nM; Kd (SH2 and PTB domains; Protein RASA1-C, ref Kaushansky et al. Mol Biosys 2008): 1950 nM; Kd (SH2 and PTB domains; Protein RASA1-NC, ref Kaushansky et al. Mol Biosys 2008): 160 nM; Kd (SH2 and PTB domains; Protein SH2D1B, ref Kaushansky et al. Mol Biosys 2008): 1600 nM; Kd (SH2 and PTB domains; Protein SH2D3C, ref Kaushansky et al. Mol Biosys 2008): 50 nM; Kd (SH2 and PTB domains; Protein SHB, ref Kaushansky et al. Mol Biosys 2008): 280 nM; Kd (SH2 and PTB domains; Protein SHE, ref Kaushansky et al. Mol Biosys 2008): 1380 nM; Kd (SH2 and PTB domains; Protein SHF, ref Kaushansky et al. Mol Biosys 2008): 1060 nM; Kd (SH2 and PTB domains; Protein SRC, ref Kaushansky et al. Mol Biosys 2008): 80 nM; Kd (SH2 and PTB domains; Protein SYK-NC, ref Kaushansky et al. Mol Biosys 2008): 240 nM; Kd (SH2 and PTB domains; Protein TENC1, ref Kaushansky et al. Mol Biosys 2008): 1150 nM; Kd (SH2 and PTB domains; Protein TNS3, ref Kaushansky et al. Mol Biosys 2008): 1890 nM; Kd (SH2 and PTB domains; Protein VAV1, ref Kaushansky et al. Mol Biosys 2008): 370 nM; Kd (SH2 and PTB domains; Protein VAV2, ref Kaushansky et al. Mol Biosys 2008): 470 nM; Kd (SH2 and PTB domains; Protein VAV3, ref Kaushansky et al. Mol Biosys 2008): 960 nM; Kd (SH2 and PTB domains; Protein YES1, ref Kaushansky et al. Mol Biosys 2008): 22 nM; Kd (GRB7 SH2 domain; ref Kaushansky et al. Mol Biosys 2008): 460 nM
